How the values were obtained:
[1] = Crystal
[2] = Molar enthalpy of transition or fusion; settings: Crystal
[3] = molar heat capacity at constant pressure; settings: 101.33 kPa

CCCCCCCCCCCCCCCCCC(=O)OC [methyl octadecanoate]
Settings | Molar enthalpy of transition or fusion [kJ/mol] | Triple point temperature [K]
[1] | – | 311.84
[2] | 66.35 | –

[3]
Settings | molar heat capacity at constant pressure [J/K/mol]
5 K, Crystal | 0.82
10 K, Crystal | 5.96
20 K, Crystal | 26.2
30 K, Crystal | 52.72
40 K, Crystal | 82.6
50 K, Crystal | 112.11
60 K, Crystal | 137.8
70 K, Crystal | 162.71
80 K, Crystal | 182.89
90 K, Crystal | 201.46
100 K, Crystal | 217.35
110 K, Crystal | 234.15
120 K, Crystal | 248.17
130 K, Crystal | 261.72
140 K, Crystal | 274.54
150 K, Crystal | 286.99
160 K, Crystal | 299.33
170 K, Crystal | 312.93
180 K, Crystal | 327.18
190 K, Crystal | 341.65
200 K, Crystal | 354.7
210 K, Crystal | 368.18
220 K, Crystal | 382.77
230 K, Crystal | 397.82
240 K, Crystal | 413.11
250 K, Crystal | 428.51
260 K, Crystal | 446.92
270 K, Crystal | 468.64
280 K, Crystal | 497.34
290 K, Crystal | 541.05
320 K, Liquid | 639
330 K, Liquid | 646.44
340 K, Liquid | 655.14
350 K, Liquid | 664.03

CCCCCCCC(=O)OC [methyl octanoate]
Settings | Triple point temperature [K]
[1] | 236.2

Settings | Molar enthalpy of transition or fusion [kJ/mol]
[2], Adiabatic calorimetry | 25.6

[3]
Settings | molar heat capacity at constant pressure [J/K/mol]
5 K, Crystal | 0.38
10 K, Crystal | 3.03
20 K, Crystal | 18.19
30 K, Crystal | 33.71
40 K, Crystal | 50.53
50 K, Crystal | 66.36
60 K, Crystal | 79.75
70 K, Crystal | 92.33
80 K, Crystal | 103.39
90 K, Crystal | 113.4
100 K, Crystal | 122.25
110 K, Crystal | 131.1
120 K, Crystal | 138.74
130 K, Crystal | 146.18
140 K, Crystal | 153.44
150 K, Crystal | 160.31
160 K, Crystal | 167.13
170 K, Crystal | 174.18
180 K, Crystal | 181.34
190 K, Crystal | 188.84
200 K, Crystal | 196.94
210 K, Crystal | 205.99
220 K, Crystal | 217.68
230 K, Crystal | 242.75
240 K, Liquid | 301.67
250 K, Liquid | 301.39
260 K, Liquid | 303.17
270 K, Liquid | 305.83
280 K, Liquid | 308.83
290 K, Liquid | 312.81
300 K, Liquid | 316.17
310 K, Liquid | 320.13
320 K, Liquid | 323.19
330 K, Liquid | 327.93
340 K, Liquid | 332.21
350 K, Liquid | 336.19

CCCCCCCCCCCCCCC(=O)OC [methyl pentadecanoate]
Settings | Molar enthalpy of transition or fusion [kJ/mol] | Triple point temperature [K]
[1] | – | 292.35
[2] | 54.28 | –

[3]
Settings | molar heat capacity at constant pressure [J/K/mol]
5 K, Crystal | 0.5
10 K, Crystal | 4.15
20 K, Crystal | 21.13
30 K, Crystal | 43.92
40 K, Crystal | 71.36
50 K, Crystal | 97.58
60 K, Crystal | 120.37
70 K, Crystal | 141.42
80 K, Crystal | 159.35
90 K, Crystal | 175.8
100 K, Crystal | 190.15
110 K, Crystal | 203.86
120 K, Crystal | 216.45
130 K, Crystal | 228.03
140 K, Crystal | 239.15
150 K, Crystal | 249.97
160 K, Crystal | 260.57
170 K, Crystal | 272.29
180 K, Crystal | 282.1
190 K, Crystal | 293.1
200 K, Crystal | 304.43
210 K, Crystal | 316.28
220 K, Crystal | 328.72
230 K, Crystal | 341.8
240 K, Crystal | 355.9
250 K, Crystal | 371.28
260 K, Crystal | 387.35
270 K, Crystal | 403.92
280 K, Crystal | 432.13
300 K, Liquid | 524.33
310 K, Liquid | 534.12
320 K, Liquid | 539.26
330 K, Liquid | 544.8
340 K, Liquid | 551.15

From the NIST ThermoML archive (doi:10.1021/je0499364)
